Laboratory results reported in patent US20050118226A1, “Methods for treating ACAT-related diseases” (priority 2003, published 2005).
“Also recorded” adds a separate entry of the source.

Tests used:
[1] = system: hAPP mice and non-transgenic littermates; assay: Morris water maze spatial learning and memory test; assay type: in vivo, mouse
Procedure: 53 days after the treatment, mice were trained in the Morris water maze (MWM) spatial navigation task in which a mouse swims to find a hidden platform, using visual cues. The task is based on the principle that rodents are highly motivated to escape from a water environment by the quickest, most direct route. This task is carried out in a circular pool (1 meter diameter) filled with water (22±1° C.) and virtually divided into four quadrants. A platform is placed in the southwest quadrant 1 cm beneath the surface of the water. The computer randomly changes the starting positions of an animal. On four consecutive days mice attend three trials per day (each lasting for a maximum of 60 seconds). Escape latency (time to find the hidden platform), and length of swimming path were measured. Significant differences of the behavioral results were calculated with the Mann Whitney U-test.
To analyze the effect of CP-113,818 treatment on cognitive function of hAPP mice, we performed Morris water maze spatial learning and memory tests on the animals. Since hAPP mice develop cognitive deficits starting at 6 months of age, the 6.5 month-old animals in our study were only expected to show slight deterioration due to Aβ accumulation, when compared to non-transgenic littermates. […] Clear impairment of cognitive function due to Aβ accumulation was only observed in female transgenic mice. […] This could have been due to a ceiling effect owing to maximum swimming speed. Compared to placebo, the improvement between day 1 and day 3 due to CP-113,818 treatment was significant (p<0.033). […] Although testing of more mice at an older age will be needed to further assess the effect of decreased amyloid pathology on spatial learning and memory, improved performance in a Morris water maze test correlated well with the highly significant decrease of overall plaque load and Aβ in CP-113,818-treated female animals.

[2] = target: T1, purified recombinant human BACE1 (Homo sapiens, UniProt P56817); assay: In vitro fluorometric BACE1 activity assay; assay type: biochemical; conditions: increasing amounts of compound, 2 hours
T1 construct: purchased R&D systems
T1 sequence (P56817 46-501): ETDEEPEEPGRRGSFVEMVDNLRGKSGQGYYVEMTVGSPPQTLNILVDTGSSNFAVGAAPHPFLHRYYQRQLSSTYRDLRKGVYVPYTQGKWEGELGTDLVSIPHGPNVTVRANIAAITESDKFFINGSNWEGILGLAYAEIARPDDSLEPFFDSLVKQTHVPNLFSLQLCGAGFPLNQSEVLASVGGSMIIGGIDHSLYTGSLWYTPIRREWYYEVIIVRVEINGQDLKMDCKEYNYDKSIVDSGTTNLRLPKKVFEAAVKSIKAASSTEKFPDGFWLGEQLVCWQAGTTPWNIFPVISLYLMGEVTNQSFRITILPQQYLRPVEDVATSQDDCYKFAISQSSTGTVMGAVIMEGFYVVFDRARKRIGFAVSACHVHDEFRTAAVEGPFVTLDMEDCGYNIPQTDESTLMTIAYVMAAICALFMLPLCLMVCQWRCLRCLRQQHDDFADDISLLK
Procedure: A fluorometric β-secretase activity kit was used for detecting BACE1 activity in vitro. Reaction was done according to the manufacturer's instructions with slight modifications. Briefly, 1 μg of purified recombinant human BACE1 (R&D systems) was resuspended in 10 μl of 1× cell extraction buffer (R&D systems) and incubated with EDANS/DABCYL-[…] substrate peptide in the absence or presence of indicated account of CP-113,818 for 2 hours. Released EDANS fluorescence was measured by a fluorescent plate reader (Analyst AD, LJL Biosystems). As a negative control, a specific β-secretase inhibitor, GL-189 (Calbiochem) was added to one of the samples with the indicated concentration.

γ-secretase = assay: In vitro generation of APP intracellular domain (AICD), γ-secretase activity assay on CHO cell membrane fractions; assay type: biochemical, Chinese hamster; conditions: CHO cell (overexpressing APP) membrane fractions, increasing amounts of compound
Procedure: Membrane preparation and in vitro generation of AICD were performed as described (Gu et al., 2001; Kim et al., 2002). P2 membrane fractions were prepared from CHO cells overexpressing wild type APP and resuspended in Buffer H (20 mM HEPES, 150 mM NaCl, 10% glycerol, 5 mM EDTA, pH 7.4) with protease inhibitors. In vitro cleavage experiments were performed by incubating the membrane fractions at 0° C. or 37° C. for 1 hour with the indicated amounts of CP-113,818. As a negative control, a specific γ-secretase inhibitor, L-685,458, was added to one of the samples.

[3] = rat, in vivo; cited from earlier work

## CCCCCCCC[C@H](SCCCCCC)C(=O)Nc1c(SC)cc(C)nc1SC [CP-113,818]
[1]; all hAPP mice regardless of gender
  spatial learning of all hAPP mice taken together: trend toward acquiring the task quickly
[1]; female hAPP mice, days 54-57 of treatment
  spatial learning performance of female hAPP mice (swimming path, escape latency): reversed the observed impairment; also recorded: improved this performance
[1]; male hAPP mice
  spatial learning performance of male hAPP mice: did not affect the performance
[1]; male non-transgenic mice, day four, not escape latency
  swimming path of male non-transgenic animals: performed better than the placebo-treated cohort; also recorded: slightly improved
[1]; non-transgenic female mice
  spatial performance of non-transgenic female mice: did not affect spatial performance
[2]
  effect on BACE1 activity in vitro: unaffected; also recorded: no direct effect
γ-secretase
  effect on γ-secretase activity (AICD generation) in vitro: unaffected; also recorded: no direct effect
[3]
  tolerated dose: 150 mg/kg per day
